Reference: patent US20170326125A1, “MULTISUBSTITUTED AROMATIC COMPOUNDS AS INHIBITORS OF THROMBIN” (VERSEON CORPORATION, priority 2016, published 2017)

The molecules below were run against T1, Human thrombin (Homo sapiens, UniProt P00734) (assay: Inhibition of the protease activity of thrombin (chromogenic substrate S-2238)). Details: Table C; 3 nM thrombin, 125 μM S-2238, 10 min pre-incubation, RT.
T1 construct: purchased Haematologic Technologies Inc
Format: biochemical
Protocol: Compounds described herein can be assayed, by a variety of methods known in the art and described herein, for inhibition of biological activity, e.g., protease activity, of a variety of proteins, e.g., thrombin.
The thrombin activity reported herein (e.g., Table A) was obtained as follows. Human thrombin was obtained from Haematologic Technologies Inc. The chromogenic
Thrombin was assayed in buffer containing 0.05 M Tris (pH 7.4), 0.015 M NaCl and 0.01% PEG-8000. The final concentration of enzyme used was 3 nM thrombin. […] All assays were performed in 96-well microtiter plates at room temperature (RT). […] Inhibitor IC50 values were determined by adding test compound as ten point, three-fold serial dilutions in buffer solution, as known in the art. The plate was read at 10 minutes after substrate addition. The IC50 was calculated by plotting the percent (%) inhibition against compound concentration and fitting the data to a constrained four parameter sigmoidal curve, as known in the art.

Structure (SMILES) | IC50 [nM]
COc1ccccc1CNc1nc(-c2cccnc2)nn1C(=O)c1cccnc1 [Cmpd 398, N-[(2-methoxyphenyl)methyl]-3-(pyridin-3-yl)-1-[(pyridin-3-yl)carbonyl]-1H-1,2,4-triazol-5-amine] | > 1000
CSc1nc(-c2ccco2)nn1C(=O)c1ccccc1Cl [Cmpd 330, 1-[(2-chlorophenyl)carbonyl]-3-(furan-2-yl)-5-(methylsulfanyl)-1H-1,2,4-triazole] | < 100
Nc1nc(C(=O)N2CCOCC2)nn1S(=O)(=O)c1ccccc1 [Cmpd 328, 1-(benzenesulfonyl)-3-[(morpholin-4-yl)carbonyl]-1H-1,2,4-triazol-5-amine] | > 1000
CCCC(=O)n1nc(-c2cccnc2)nc1NCc1ccc(OC)cc1 [Cmpd 322, 1-(5-[(4-methoxyphenyl)methyl]amino-3-(pyridin-3-yl)-1H-1,2,4-triazol-1-yl)butan-1-one] | < 100

Same assay, conditions: inhibition of the protease activity of thrombin

Structure (SMILES) | IC50 [nM]
O=C(c1cccc2ccccc12)n1nc(-c2ccccn2)cc1NCc1ccccc1 [Cmpd 270, N-benzyl-1-[(naphthalen-1-yl)carbonyl]-3-(pyridin-2-yl)-1H-pyrazol-5-amine] | > 1000
COc1ccccc1C(=O)n1nc(-c2ccccn2)cc1NCc1ccoc1 [Cmpd 202, N-(furan-3-ylmethyl)-1-[(2-methoxyphenyl)carbonyl]-3-(pyridin-2-yl)-1H-pyrazol-5-amine] | 100 to 1000
COc1ccc(C(=O)n2nc(-c3ccccn3)cc2NCc2ccccc2)c(OC)c1 [Cmpd 236, N-benzyl-1-[(2,4-dimethoxyphenyl)carbonyl]-3-(pyridin-2-yl)-1H-pyrazol-5-amine] | 100 to 1000
COc1ccccc1C(=O)n1nc(-c2ccncc2)nc1NCc1ccccc1 [Cmpd 257, N-benzyl-1-[(2-methoxyphenyl)carbonyl]-3-(pyridin-4-yl)-1H-1,2,4-triazol-5-amine] | < 100
COc1ccccc1C(=O)n1nc(-c2ccco2)nc1NCc1ccccc1 [Cmpd 280, N-benzyl-3-(furan-2-yl)-1-[(2-methoxyphenyl)carbonyl]-1H-1,2,4-triazol-5-amine] | < 100
COc1ccccc1C(O)c1cc(-c2ccccn2)nn1CCc1ccc(F)cc1 (stereo not shown) [Cmpd 304, 1-[2-(4-fluorophenyl)ethyl]-3-(pyridin-2-yl)-1H-pyrazol-5-yl(2-methoxyphenyl)methanol] | > 1000

Same assay, conditions: inhibition of the protease activity of thrombin; class symbols a/b/c

Structure (SMILES) | IC50 [nM]
O=C(Cn1nc(-c2cccnc2)nc1NCc1ccc(F)cc1)c1ccccc1 [Cmpd 21] | > 1000
O=C(Nc1ccccc1)n1nc(-c2cccnc2)nc1NCc1ccc(F)cc1 [Cmpd 191, 5-[(4-fluorophenyl)methyl]amino-N-phenyl-3-(pyridin-3-yl)-1H-1,2,4-triazole-1-carboxamide] | > 1000
Fc1ccc(CNc2cc(-c3ccccn3)nn2-c2ccccc2Cl)cc1 [Cmpd 45] | > 1000
CON(C)C(=O)c1cc(-c2ccccn2)nn1CCc1ccc(F)cc1 [Cmpd 53] | > 1000
CCCC(=O)n1nc(-c2ccccn2)nc1NCc1ccc(F)cc1 [Cmpd 69, 1-(5-[(4-fluorophenyl)methyl]amino-3-(pyridin-2-yl)-1H-1,2,4-triazol-1-yl)butan-1-one] | < 100
CCC(=O)n1nc(-c2ccccn2)nc1NCc1ccc(OC)cc1 [Cmpd 93, 1-(5-[(4-methoxyphenyl)methyl]amino-3-(pyridin-2-yl)-1H-1,2,4-triazol-1-yl)propan-1-one] | < 100
CCCC(=O)n1nc(-c2ccncc2)nc1NCc1ccc(F)cc1 [Cmpd 80, 1-(5-[(4-fluorophenyl)methyl]amino-3-(pyridin-4-yl)-1H-1,2,4-triazol-1-yl)butan-1-one] | < 100
CCOC(=O)c1cc(-c2ccccn2)n(CCc2ccc(F)cc2)n1 [Cmpd 57] | > 1000
CC(C)(C)C(=O)n1nc(-c2ccccn2)cc1NCc1ccoc1 [Cmpd 166, 1-5-[(furan-3-ylmethyl)amino]-3-(pyridin-2-yl)-1H-pyrazol-1-yl-2,2-dimethylpropan-1-one] | 100 to 1000
